Columns and labels:
leukemia cell lines = experiment: Resazurin cell viability assay on leukemia cell lines (72 h growth inhibition, GI50); format: cell-based; settings: Homo sapiens, MV4-11 cells
Method: Compounds from Example 1 were subjected to a standard MTT (3-(4,5-dimethylthiazol-2-yl)-2,5-diphenyltetrazolium bromide) and resazurin assays on solid tumour cell lines and leukemia cell lines, respectively, as previously reported (Wang S et al., J Med Chem 47:1662-1675, 2004 and Diab S. et al. CheMedChem 9:962-972, 2014). Compound concentrations required to inhibit 50% of cell growth (GI50) were calculated using non-linear regression analysis.

CDK4/D1 = CDK4/D1 (Homo sapiens, UniProt P11802); experiment: ADP Glo Kinase assay CDK4/D1; format: biochemical; settings: CDK4D1; compound at 10 μM; read-out: residual activity (%) at 10 μM CDK4D1
Chain of CDK4/D1 (P11802 whole entry): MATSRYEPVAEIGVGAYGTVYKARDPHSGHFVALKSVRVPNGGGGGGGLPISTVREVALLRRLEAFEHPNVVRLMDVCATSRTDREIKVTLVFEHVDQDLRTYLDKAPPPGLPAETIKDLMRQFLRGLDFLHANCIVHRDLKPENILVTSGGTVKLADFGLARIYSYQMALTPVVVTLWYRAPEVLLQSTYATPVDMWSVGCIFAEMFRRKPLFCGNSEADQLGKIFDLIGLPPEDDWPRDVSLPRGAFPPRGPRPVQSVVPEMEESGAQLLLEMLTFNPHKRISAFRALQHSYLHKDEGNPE
Chain of CDK4/D1 (P24385 whole entry partner): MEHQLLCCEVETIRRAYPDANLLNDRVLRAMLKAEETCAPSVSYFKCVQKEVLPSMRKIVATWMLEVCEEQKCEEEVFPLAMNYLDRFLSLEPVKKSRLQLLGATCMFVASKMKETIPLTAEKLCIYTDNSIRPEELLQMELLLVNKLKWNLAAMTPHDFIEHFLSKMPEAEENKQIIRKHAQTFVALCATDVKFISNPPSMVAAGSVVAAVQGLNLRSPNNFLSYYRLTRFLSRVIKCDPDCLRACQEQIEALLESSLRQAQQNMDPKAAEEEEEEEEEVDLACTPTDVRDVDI
Summary of the method: (§1)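 CDK4/D1 and CDK6/D3 were run in […] Tris pH 7.5, 20 mM MgCl2, 0.4 mM DTT, 0.1 mg/ml BSA with RB-CTF substrate; CDK9/T1 used RBER-IRStide. ATP-started reactions ran 40 min at 37° C, with ADP Glo luminescence read-out. IC50 came from 4-parameter fits; Ki from Km (ATP) and IC50.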

CDK9/T1 = CDK9/T1 (Homo sapiens, UniProt P50750); experiment: ADP Glo Kinase assay CDK9/T1; format: biochemical; settings: CDK9T1; read-out: CDK inhibition, Ki (μM) CDK9T1
Chain of CDK9/T1 (P50750 whole entry): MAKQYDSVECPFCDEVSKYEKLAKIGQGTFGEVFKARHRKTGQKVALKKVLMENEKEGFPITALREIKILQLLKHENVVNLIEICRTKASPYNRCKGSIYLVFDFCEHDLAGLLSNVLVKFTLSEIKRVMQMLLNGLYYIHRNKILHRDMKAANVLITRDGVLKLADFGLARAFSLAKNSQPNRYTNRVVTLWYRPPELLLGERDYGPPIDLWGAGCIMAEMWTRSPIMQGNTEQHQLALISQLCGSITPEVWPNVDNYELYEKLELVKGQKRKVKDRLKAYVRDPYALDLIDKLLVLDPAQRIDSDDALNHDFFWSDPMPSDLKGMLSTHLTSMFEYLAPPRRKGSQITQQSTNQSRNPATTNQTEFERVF
Chain of CDK9/T1 (O60563 whole entry partner): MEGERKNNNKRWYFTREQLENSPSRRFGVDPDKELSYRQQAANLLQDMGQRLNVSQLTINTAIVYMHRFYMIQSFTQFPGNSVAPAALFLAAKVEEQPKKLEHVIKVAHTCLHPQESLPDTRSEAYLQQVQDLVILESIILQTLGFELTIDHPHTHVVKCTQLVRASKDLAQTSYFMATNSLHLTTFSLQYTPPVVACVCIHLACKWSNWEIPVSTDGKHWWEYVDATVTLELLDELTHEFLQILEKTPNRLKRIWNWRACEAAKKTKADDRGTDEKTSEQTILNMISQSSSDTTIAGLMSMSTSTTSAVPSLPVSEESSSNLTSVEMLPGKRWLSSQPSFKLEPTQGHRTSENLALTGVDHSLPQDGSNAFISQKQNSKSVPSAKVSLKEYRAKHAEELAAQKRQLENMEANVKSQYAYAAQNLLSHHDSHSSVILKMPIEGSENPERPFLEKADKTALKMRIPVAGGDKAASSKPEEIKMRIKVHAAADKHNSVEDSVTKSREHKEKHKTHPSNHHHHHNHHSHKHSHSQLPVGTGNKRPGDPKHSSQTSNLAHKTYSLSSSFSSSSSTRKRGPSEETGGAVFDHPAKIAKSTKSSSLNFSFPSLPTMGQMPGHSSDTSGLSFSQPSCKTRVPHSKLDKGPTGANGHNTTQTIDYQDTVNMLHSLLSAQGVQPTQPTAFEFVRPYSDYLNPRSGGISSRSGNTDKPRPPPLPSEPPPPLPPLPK
Summary of the method: as §1

CDKs and other kinases [1] = target: T1, CDKs and other kinases (Homo sapiens, UniProt P06493); experiment: Radiometric kinase assay (Eurofins Pharma Discovery or Reaction Biology Corporation Kinase Profiler); format: biochemical; settings: CDK1B; for remaining activity at 10 µM: compound at 10 μM, read-out: residual activity (%) at 10 μM CDK1B
T1 construct: other: CDK1B; residual activity (%) at 10 μM CDK1B; compound at 10 μM
T1 sequence (P06493 whole entry): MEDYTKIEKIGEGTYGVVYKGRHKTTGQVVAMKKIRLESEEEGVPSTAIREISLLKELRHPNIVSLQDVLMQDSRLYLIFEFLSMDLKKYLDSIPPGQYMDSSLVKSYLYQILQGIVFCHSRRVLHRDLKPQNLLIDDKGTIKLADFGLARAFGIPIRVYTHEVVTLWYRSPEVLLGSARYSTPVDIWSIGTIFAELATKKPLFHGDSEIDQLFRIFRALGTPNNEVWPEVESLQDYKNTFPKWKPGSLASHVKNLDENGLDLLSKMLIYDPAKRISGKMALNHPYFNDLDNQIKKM
Summary of the method: (§2)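 Other CDKs and further kinases were profiled externally by radiometric assay. In-house ADP Glo assays covered CDK4/D1 and CDK6/D3 (RB-CTF substrate, pH 7.5 Tris buffer with MgCl2, DTT, BSA) and CDK9/T1 (RBER-IRStide substrate), 40 min at 37° C.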

CDKs and other kinases [2] = target: T2, CDKs and other kinases (Homo sapiens, UniProt P50613); experiment: as above; format: biochemical; settings: CDK7H; for Ki: read-out: CDK inhibition, Ki (μM) CDK7H; for remaining activity at 10 µM: compound at 10 μM, read-out: residual activity (%) at 10 μM CDK7H
T2 construct: other: CDK7H; residual activity (%) at 10 μM CDK7H; compound at 10 μM
T2 sequence (P50613 whole entry): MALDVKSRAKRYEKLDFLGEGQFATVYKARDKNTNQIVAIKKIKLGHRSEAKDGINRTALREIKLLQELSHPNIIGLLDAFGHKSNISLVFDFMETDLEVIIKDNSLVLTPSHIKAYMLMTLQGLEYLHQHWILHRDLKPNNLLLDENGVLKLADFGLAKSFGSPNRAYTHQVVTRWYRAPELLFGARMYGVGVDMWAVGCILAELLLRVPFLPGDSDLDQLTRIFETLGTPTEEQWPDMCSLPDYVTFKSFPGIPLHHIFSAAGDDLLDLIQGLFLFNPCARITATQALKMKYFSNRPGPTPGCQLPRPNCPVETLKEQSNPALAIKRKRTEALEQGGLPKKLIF
Summary of the method: as §2

CDKs and other kinases [3] = target: T3, CDKs and other kinases (Homo sapiens, UniProt P24941); experiment: as above; format: biochemical; settings: CDK2A; for remaining activity at 10 µM: compound at 10 μM, read-out: residual activity (%) at 10 μM CDK2A; for Ki: read-out: CDK inhibition, Ki (μM) CDK2A
T3 construct: other: CDK2A; residual activity (%) at 10 μM CDK2A; compound at 10 μM
Summary of the method: as §2

Row | SMILES | GI50 (leukemia cell lines) [µM] | remaining activity at 10 µM (CDK4/D1) [%] | Ki (CDK9/T1) [µM] | remaining activity at 10 µM (CDKs and other kinases [1]) [%] | Ki (CDKs and other kinases [2]) [µM] | remaining activity at 10 µM (CDKs and other kinases [3]) [%] | remaining activity at 10 µM (CDKs and other kinases [2]) [%] | Ki (CDKs and other kinases [3]) [µM] | Ki (CDKs and other kinases [1]; read-out: CDK inhibition, Ki (μM) CDK1B) [µM]
1 | CN1CCC(Nc2ncc(F)c(-c3cnc4ccc(Nc5cncnc5)cn34)n2)CC1 [Compound 149, 3-(5-Fluoro-2-((1-methylpiperidin-4-yl)amino)pyrimidin-4-yl)-N-(pyrimidin-5-yl)imidazo[1,2-a]pyridin-6-amine] | 0.145 ± 0.001 | 3 | 0.178 | 9 | 0.313 | 20 |  |  | 
2 | Cc1cnc(N[C@H]2CC[C@H](NS(C)(=O)=O)CC2)nc1-c1cnc2ccc(Nc3cncnc3)cn12 [Compound 126, N-((1r,4r)-4-((5-Methyl-4-(6-(pyrimidin-5-ylamino)imidazo[1,2-a]pyridin-3-yl)pyrimidin-2-yl)amino)cyclohexyl)methanesulfonamide] | > 5 | 14 | 0.111 | 2 |  |  | 94 | 0.089 | 
3 | COC(=O)[C@H]1CC[C@H](Nc2ncc(C)c(-c3cnc4ccc(Nc5cncnc5)cn34)n2)CC1 [Compound 157, Methyl (1r,4r)-4-((5-methyl-4-(6-(pyrimidin-5-ylamino)imidazo[1,2-a]pyridin-3-yl)pyrimidin-2-yl)amino) cyclohexane-1-carboxylate] | 2.4 ± 0.09 | 32 | 0.527 | 69 |  | 38 | 90 |  | 
4 | Fc1cnc(N[C@H]2CC[C@H](N3CCC3)CC2)nc1-c1cnc2ccc(-c3ccccc3)cn12 [Compound 138, N-((1r,4r)-4-(Azetidin-1-yl)cyclohexyl)-5-fluoro-4-(6-phenylimidazo[1,2-a]pyridin-3-yl)pyrimidin-2-amine] | < 0.001 | 6 | 0.006 |  |  |  | 0 | 0.111 | 0.076
5 | Cc1cnc(N[C@H]2CC[C@H](N)CC2)nc1-c1cnc2cc(C(F)(F)F)c(-c3ccccc3)cn12 [Compound 150, (1r,4r)-N1-(5-Methyl-4-(6-phenyl-7-(trifluoromethyl)imidazo[1,2-a]pyridin-3-yl)pyrimidin-2-yl)cyclohexane-1,4-diamine] | 0.42 ± 0.02 | 21 | 0.149 | 45 | 0.372 | 11 |  |  | 
6 | CCN[C@H]1CC[C@H](Nc2ncc(C)c(-c3cnc4ccc(-c5ccccc5)cn34)n2)CC1 [Compound 131, (1r,4r)-N^1-Ethyl-N^4-(5-methyl-4-(6-phenylimidazo[1,2-a]pyridin-3-yl)pyrimidin-2-yl)cyclohexane-1,4-diamine] | 0.132 ± 0.059 | 24 | 0.32 | 29 |  | 44 | 20 |  | 
7 | Fc1cnc(NC2CCNCC2)nc1-c1cnc2ccc(-c3ccccc3)cn12 [Compound 143, 5-Fluoro-4-(6-phenylimidazo[1,2-a]pyridin-3-yl)-N-(piperidin-4-yl)pyrimidin-2-amine] | 0.003 ± 0.001 | 4 | 0.108 | 3 | 0.088 | 4 |  |  | 
8 | Fc1cnc(NC2CCN(CC3CCCC3)CC2)nc1-c1cnc2ccc(-c3ccccc3)cn12 [Compound 146, N-(1-(Cyclopentylmethyl)piperidin-4-yl)-5-fluoro-4-(6-phenylimidazo[1,2-a]pyridin-3-yl)pyrimidin-2-amine] | 0.026 ± 0.003 | 34 | 1.82 | 16 | 0.37 | 34 |  |  | 
